Experimental data taken from patent publication US11679167B2, “Ophthalmic compositions, and ocular uses thereof, of indigo carmine” (priority 2018, dated 2023).
Entries after “also recorded” stand apart in the source; their conditions may differ.

Key:
[1] = tested on: eye bank eyes; experiment: Dye solution instilled by injection into the anterior chamber of eye bank eyes; staining and outflow seen by naked eye or operating microscope; parameters: species or system human; settings: for Appearance (egress) of dye in the outflow vessels after injection into the anterior chamber: human eye bank eyes, Indigo Carmine 0.004, 0.04 and 0.4 wt. %
Excerpt: After an incision is made into the anterior chamber of the eye, a small amount of aqueous humor is expressed and the dye solution is instilled by injection into the anterior chamber. The dye solution is typically left in place for 30 seconds, during which time it stains the anterior capsule of the lens. Excess dye solution is then expelled, usually using a viscoelastic device or flushed out with a balanced salt solution.
Dye solutions containing 0.004 wt. %, 0.04 wt. %, and 0.4 wt. % of Indigo Carmine (prepared by serial dilutions of a 0.4 wt. % Indigo Carmine solution provided by Micro-Tech (Nanjing) Co.) were instilled by injection into the anterior chamber of seven eye bank eyes following the dye solution instillation procedure detailed above.
Special imaging techniques were not required.

[2] = tested on: anterior capsule; settings: cited from earlier work
[3] = tested on: ocular structures; settings: cited from earlier work
[4] = tested on: ocular surface squamous neoplastic lesion; experiment: Topical application of dye to a human eye, slit lamp view; type: in vivo
Excerpt: FIG. 8 is a slit lamp view of a human eye wherein an ocular surface squamous neoplastic lesion is delineated after topical application of Indigo Carmine. A blue outline is seen around the perimeter of the white ocular surface squamous neoplastic lesion.

[5] = tested on: porcine eye; experiment: Dye injected into the lenticular plain after Small Incision Lenticule Extraction (SMILE)
Excerpt: FIG. 9A is an operating microscope view of a porcine eye upon which a Small Incision Lenticule Extraction procedure (SMILE) has been carried out. From this view, circular horizontal plains have been cut in the corneal stroma, a superficial smaller diameter cut and a deeper cut of larger diameter. The cuts join in the corneal periphery, thereby creating a lenticule. The arrows show the edge of these cuts.
FIG. 9B is an operating microscope view of a porcine eye upon which a Small Incision Lenticule Extraction procedure (SMILE) has been carried out. Indigo Carmine has been injected into the lenticular plain.

[6] = sodium salt; cited from earlier work
[7] = cited from earlier work
[8] = anterior chamber perfused or injected with dye solution, sodium salt

## CC1(C)C(/C=C/C=C/C=C/C=C2\N(CCCCS(=O)(=O)O)c3ccc4ccccc4c3C2(C)C)=[N+](CCCCS(=O)(=O)[O-])c2ccc3ccccc3c21 [Indocyanine Green]
[1]
  Appearance (egress) of dye in the outflow vessels after injection into the anterior chamber: the dye appears to remain within the eye

## Brilliant Blue
[1]
  Appearance (egress) of dye in the outflow vessels after injection into the anterior chamber: the dye appears to remain within the eye

## CCN(CC)c1ccc(C(=C2C=CC(=[N+](CC)CC)C=C2)c2cc(O)c(S(=O)(=O)O)cc2S(=O)(=O)O)cc1 [Patent Blue]
[1]
  Appearance (egress) of dye in the outflow vessels after injection into the anterior chamber: the dye appears to remain within the eye

## Cc1cc(-c2ccc(/N=N/c3c(S(=O)(=O)O)cc4cc(S(=O)(=O)O)cc(N)c4c3O)c(C)c2)ccc1/N=N/c1c(S(=O)(=O)O)cc2cc(S(=O)(=O)O)cc(N)c2c1O [Trypan Blue]
[1]
  Appearance (egress) of dye in the outflow vessels after injection into the anterior chamber: the dye appears to remain within the eye
[2]
  Lowest concentration at which staining of the anterior capsule occurs: ≥ 0.0125 wt. %
[3]
  Identifying and visualizing anterior lens capsule and trabecular meshwork: effective
  Identifying or visualizing the canal of Schlemm: not effective

## O=C1C(=C2Nc3ccc(S(=O)(=O)[O-])cc3C2=O)Nc2ccc(S(=O)(=O)[O-])cc21.[Na+].[Na+] [Indigo Carmine, 5,5′-indigodisulfonic acid sodium salt]
[1]
  Diffusion of dye through tissues: generally does not diffuse through tissues
[1]; [8]
  Staining of the canal of Schlemm: stains heavily; also recorded: heavy staining of Schlemm's canal
  Staining of the trabecular meshwork: stains the trabecular meshwork lightly; also recorded: more lightly stained
[1]; at each concentration: 0.004 wt. %, 0.04 wt. %, 0.4 wt. %
  Visibility of dye in the collector channels on the surface of the eye after passing through the drainage system: visible to the naked eye of the surgeon
[1]; sodium salt
  Appearance (egress) of dye in the outflow vessels after injection into the anterior chamber: appeared in the fine vessels in the conjunctiva adjacent to the limbus, the aqueous veins and the conjunctival venous system; also recorded: some of the dye exiting the eye through the aqueous veins
[1]; injection via small corneal incision, capsulorhexis procedure, sodium salt
  Staining of the anterior capsule of the lens: stain the anterior capsule of the crystalline lens; also recorded: lightly stained
[1]; no special imaging techniques, standard operating microscope
  Visibility of dye on the surface of the instilled eye: easily visible to the naked eye of the surgeon
[1]; once the conjunctiva was reflected away, sodium salt
  Dye in the deep scleral plexus: observed in the deep scleral plexus; also recorded: deeper vessels are seen
[4]
  Delineation of ocular surface squamous neoplastic lesion: delineated
[5]
  Identification of the lenticule edge: white arrows indicate the complete circular edge of the lenticule
[6]
  Protein binding: low protein binding; also recorded: relatively reduced protein binding
[7]
  Solubility in water: soluble in water
